Test results as given in US20260109690A1, “HDAC6 INHIBITORS AND METHOD OF THEIR USE” (Baerenkraft Therapeutics, LLC., priority 2024, published 2026).
Entries after “also recorded” stand apart in the source; their conditions may differ.

Tests used:
HDAC5 = HDAC5 (Homo sapiens, UniProt Q9UQL6); test: HDAC selectivity panel: HDAC5; format: biochemical
HDAC10 = target: T1, HDAC10 (Homo sapiens, UniProt Q969S8); test: HDAC selectivity panel: HDAC10; format: biochemical
T1 sequence (Q969S8 1-669): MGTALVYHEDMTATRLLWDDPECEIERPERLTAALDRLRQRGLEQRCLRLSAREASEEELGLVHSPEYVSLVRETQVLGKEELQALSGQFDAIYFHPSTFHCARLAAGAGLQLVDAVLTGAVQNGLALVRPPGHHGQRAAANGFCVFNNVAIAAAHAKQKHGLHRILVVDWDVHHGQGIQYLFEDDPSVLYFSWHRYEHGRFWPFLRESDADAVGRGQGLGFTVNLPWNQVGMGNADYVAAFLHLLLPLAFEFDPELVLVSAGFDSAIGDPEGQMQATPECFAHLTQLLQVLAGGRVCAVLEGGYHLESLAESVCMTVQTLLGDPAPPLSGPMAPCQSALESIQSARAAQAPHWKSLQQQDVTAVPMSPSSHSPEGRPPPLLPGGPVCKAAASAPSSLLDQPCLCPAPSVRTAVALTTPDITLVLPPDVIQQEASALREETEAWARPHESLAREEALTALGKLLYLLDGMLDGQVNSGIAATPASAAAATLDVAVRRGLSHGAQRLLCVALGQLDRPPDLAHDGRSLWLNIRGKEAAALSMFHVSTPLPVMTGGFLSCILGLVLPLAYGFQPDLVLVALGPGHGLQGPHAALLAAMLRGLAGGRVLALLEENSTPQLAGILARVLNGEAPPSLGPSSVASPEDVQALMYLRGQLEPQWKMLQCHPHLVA

[1] = test system: acetyl-α-tubulin in SH-SY5Y neuroblastoma cells; test: Western blot of acetylated alpha-tubulin in SH-SY5Y neuroblastoma cells; format: cell-based; details: 1 μM and 10 μM, 24 hours
Experimental: SH-SY5Y neuroblastoma cells were seeded at 1,000,000 cells/well of three 6-well plates and incubated for 24 hours. Cells were treated with 2 control and experimental HDAC6 inhibitors at 1 μM and 10 μM for 24-hours. Following treatment, cells were lysed, and proteins extracted for western blot. Proteins were separated by gel electrophoresis and transferred to nitrocellulose membranes. Membranes were blocked and probed with primary Abs overnight.
acetyl-α-tubulin (Lys40)(D20G3); Cell Signaling Technologies, #5335S
GAPDH; Millipore Sigma, #MAB374
Membranes were probed with secondary Abs for 1 hour and then the blots were imaged using the iBright 1500 (ThermoFisher)

[2] = test system: B6SJL.SOD1-G93A transgenic mouse model of amyotrophic lateral sclerosis; test: ALS mouse model: rotarod test; format: in vivo, mice
Experimental: The Rotarod test was used for motor coordination assessment in mice. Animals were accustomed to the rotarod at 10 rpm for 300 s followed by training for 2 days at accelerated rpm (4-40 for 300 s) with 15 minutes inter trial interval. On the day of the test, animals were subjected to rotarod test at 4-40 rpm for 300 s with 15 minutes inter trial interval. During the training and test, the latency to fall off the rod was recorded. A total of 3 trials were recorded, data was averaged and analyzed.
Note: Behavioral tests were performed once in two weeks, i.e. at week 10, 12, 14 and 16.

[3] = ALS mouse model: clinical signs & mortality; format: in vivo; details: G4 30 mg/kg (50 mg/kg from day 34) p.o. QD; SOD1-G93A mice
Experimental: Male mice and age-matched control mice were procured. All animals were quarantine for 7 days and acclimatized for one day prior to experiment initiation. During this period, the animals were observed daily for clinical signs.
Mice were weighed and randomized into different groups and age matched control groups were kept as such. Test compound I-8 was freshly formulated and administered to the respective animals of each group as per body weight. Animals in G1 and G2 were administered with vehicle. G3 and G4 group animals were dosed with compound I-8 at the dose of 15 mg/kg and 30 mg/kg respectively, per orally; Q.D. G4 animals were administered 30 mg/kg dose until day 34 and 50 mg/kg from day 35 onwards.
Cage-side observations were made to detect any changes and general activity of the animals. After dose administration, all the animals were observed carefully for treatment related clinical signs, including morbidity and mortality.

HDAC1 = HDAC1 (Homo sapiens, UniProt Q13547); test: HDAC selectivity panel: HDAC1; format: biochemical
[4] = Mice PK studies of compound I-16; format: in vivo
[5] = Tg2576 study: bioanalysis; format: in vivo, mice
Text: At termination, animals were given a final dose, and under mild anesthesia, blood was collected retro-orbitally and separated plasma were utilized for bio analysis (G3) and ex vivo analysis. Then animals were euthanized under CO2 asphyxiation and brain tissue was collected and divided into two equal hemispheres. One hemisphere was fixed in 10% NBF for immunohistochemistry and from another hemisphere, dissected cortex and hippocampus was utilized for ex vivo analysis.
At the end of the experiment, animals in group G3 were dosed with the test compound, blood was collected under mild anesthesia, and separated plasma was utilized for drug bioanalysis by LC-MS/MS.

Tg2576 AD Disease Mice = test: Tg2576 study: Y-maze test; format: in vivo; details: for # of Spontaneous Alterations (Y-Maze) / % Spontaneous Alterations (Y-Maze): G3 Tg2576 mice
Experimental: Mice were weighed and randomized into groups. All the test formulations were freshly administered to respective animals of each group as per body weight. Basal behavior of the animals was recorded and analyzed in open field, Y-Maze, and EPM. Post basal behavior, animals were treated with compound I-16 for the duration of 3 months (i.e., from 6 months until 9 months). During the treatment duration, animals were subjected to different behavioral tests such as OFT, Y-maze, and EPM at 7, 8 and 9 months. At the end of experiments (i.e., at 9 months) animals were subjected to Morris water maze test.
To test spatial working memory, animals were subjected to spontaneous alteration test in Y-maze (Arm length—57 cm). During the test, the animal was placed at the end of one arm and allowed to explore the arena for a duration of 10 minutes. During the testing session, the number of entries in each arm were recorded and % alterations were calculated.
% Spontaneous alteration=(Spontaneous alteration/Total Arm entries−2)×100

[6] = 50 mg/kg then 80 mg/kg from day 36 p.o., 8th months
[7] = 50 mg/kg then 80 mg/kg from day 36 p.o., 9th months
[8] = 6th months (Basal, before treatment)

HDAC5, sequence (Q9UQL6 whole entry, species assumed): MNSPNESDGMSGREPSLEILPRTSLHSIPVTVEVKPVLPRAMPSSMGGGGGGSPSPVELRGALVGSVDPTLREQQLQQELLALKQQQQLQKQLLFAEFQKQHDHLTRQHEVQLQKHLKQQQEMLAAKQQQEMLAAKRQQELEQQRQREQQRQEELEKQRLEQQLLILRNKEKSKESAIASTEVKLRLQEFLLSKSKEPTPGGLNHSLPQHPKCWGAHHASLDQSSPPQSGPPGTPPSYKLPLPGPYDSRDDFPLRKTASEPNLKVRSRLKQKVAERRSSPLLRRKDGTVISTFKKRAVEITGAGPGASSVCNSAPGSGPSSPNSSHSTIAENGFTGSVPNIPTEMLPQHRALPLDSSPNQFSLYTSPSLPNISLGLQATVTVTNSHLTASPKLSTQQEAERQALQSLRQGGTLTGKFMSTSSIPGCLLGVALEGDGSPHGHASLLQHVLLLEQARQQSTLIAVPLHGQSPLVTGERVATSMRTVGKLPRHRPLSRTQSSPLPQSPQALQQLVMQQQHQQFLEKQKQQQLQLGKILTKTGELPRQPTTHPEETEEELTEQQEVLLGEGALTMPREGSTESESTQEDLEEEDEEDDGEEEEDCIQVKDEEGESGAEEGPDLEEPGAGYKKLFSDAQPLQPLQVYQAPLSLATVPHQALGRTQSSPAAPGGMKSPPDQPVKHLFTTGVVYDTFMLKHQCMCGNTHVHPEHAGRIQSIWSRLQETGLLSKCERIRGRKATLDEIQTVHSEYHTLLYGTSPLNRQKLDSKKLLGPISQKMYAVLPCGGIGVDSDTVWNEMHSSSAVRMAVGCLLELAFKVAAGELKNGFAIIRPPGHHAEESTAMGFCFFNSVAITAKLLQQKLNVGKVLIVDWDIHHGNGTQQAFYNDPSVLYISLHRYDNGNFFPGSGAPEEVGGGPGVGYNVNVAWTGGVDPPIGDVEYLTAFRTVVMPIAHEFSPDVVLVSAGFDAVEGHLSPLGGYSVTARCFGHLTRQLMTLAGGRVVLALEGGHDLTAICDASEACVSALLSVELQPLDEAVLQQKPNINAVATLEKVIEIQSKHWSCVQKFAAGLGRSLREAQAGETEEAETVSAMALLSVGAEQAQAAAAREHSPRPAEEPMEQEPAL
HDAC1, sequence (Q13547 whole entry, species assumed): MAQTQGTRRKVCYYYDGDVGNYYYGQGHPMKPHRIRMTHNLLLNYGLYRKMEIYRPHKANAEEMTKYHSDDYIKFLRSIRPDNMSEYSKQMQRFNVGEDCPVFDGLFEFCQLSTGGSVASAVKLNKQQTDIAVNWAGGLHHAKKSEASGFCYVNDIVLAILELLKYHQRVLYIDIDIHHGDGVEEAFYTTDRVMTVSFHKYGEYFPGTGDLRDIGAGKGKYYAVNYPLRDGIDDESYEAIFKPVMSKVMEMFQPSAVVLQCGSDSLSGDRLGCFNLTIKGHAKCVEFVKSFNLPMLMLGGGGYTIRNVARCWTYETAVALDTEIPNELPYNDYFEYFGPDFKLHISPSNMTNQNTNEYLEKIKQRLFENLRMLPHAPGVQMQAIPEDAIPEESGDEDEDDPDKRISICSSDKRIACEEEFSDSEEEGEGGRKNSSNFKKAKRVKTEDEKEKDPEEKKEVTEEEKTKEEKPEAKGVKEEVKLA

Compound: CC1CN(Cc2ccc(Nc3nccc(-c4ccc(C(=O)NO)cc4)n3)cc2F)CCO1 (racemic) [Compound I-8, 4-(2-((3-fluoro-4-((2-methylmorpholino)methyl)phenyl)amino)pyrimidin-4-yl)-N-hydroxybenzamide]
- IC50 (HDAC5): 7770 nM
- IC50 (HDAC10): 9.15 nM
- acetylation of α-tubulin (Western blot) [1]: induce acetylation of α-tubulin in SH-SY5Y neuroblastoma cells in a dose-dependent manner; also recorded: induces acetylation α-tubulin
- Rotarod Test latency to fall ([2]; G3 15 mg/kg p.o. QD, Week 10): 137.59 ± 15.62 s
- Rotarod Test latency to fall ([2]; G3 15 mg/kg p.o. QD, Week 12): 119.19 ± 18.07 s
- Rotarod Test latency to fall ([2]; G3 15 mg/kg p.o. QD, Week 14): 88.63 ± 10.57 s
- Rotarod Test latency to fall ([2]; G3 15 mg/kg p.o. QD, Week 16): 34.04 ± 12.74 s
- Rotarod Test latency to fall ([2]; G4 30 mg/kg (50 mg/kg from day 34) p.o. QD, Week 10): 140 ± 13.47 s
- Rotarod Test latency to fall ([2]; G4 30 mg/kg (50 mg/kg from day 34) p.o. QD, Week 12): 120.58 ± 13.17 s
- Rotarod Test latency to fall ([2]; G4 30 mg/kg (50 mg/kg from day 34) p.o. QD, Week 14): 86 ± 16.17 s
- Rotarod Test latency to fall ([2]; G4 30 mg/kg (50 mg/kg from day 34) p.o. QD, Week 16): 39.79 ± 20.43 s
- mortality [3]: two mortalities
- IC50 (HDAC1): 1180 nM

Compound: C[C@@H]1CN(Cc2ccc(Nc3nccc(-c4ccc(C(=O)NO)cc4)n3)cc2F)CCO1 [Compound I-16, (R)-4-(2-((3-fluoro-4-((2-methylmorpholino)methyl)phenyl)amino)pyrimidin-4-yl)-N-hydroxybenzamide]
- oral and brain uptake [4]: promising oral, and brain up take
- Brain Conc (ng/mL) ([5]; G3 Tg2576 mice, end of experiment, 9 hr post dose): No Peak
- plasma concentration time course ([5]; G3 mice bled at different time points after the water maze test): time course dependent decrease
- concentration at 2 h ([5]; male, mouse, plasma, oral, G3 Tg2576 mice, end of experiment, 2 hr post dose, read-out: Plasma Concentrations): 106 ± 13.8 ng/mL
- concentration at 4 h ([5]; male, mouse, plasma, oral, G3 Tg2576 mice, end of experiment, 4 hr post dose, read-out: Plasma Concentrations): 32.6 ± 4.75 ng/mL
- concentration at 6 h ([5]; male, mouse, plasma, oral, G3 Tg2576 mice, end of experiment, 6 hr post dose, read-out: Plasma Concentrations): 19 ± 4.16 ng/mL
- concentration at 8 h ([5]; male, mouse, plasma, oral, G3 Tg2576 mice, end of experiment, 8 hr post dose, read-out: Plasma Concentrations): 12.1 ± 2.1 ng/mL
- Y Maze: number of spontaneous alterations compared to G2 (Tg2576 + vehicle) (Tg2576 AD Disease Mice; G3 Tg2576 AD disease mice, 50 mg/kg): did not show any significant difference
- # of Spontaneous Alterations (Y-Maze) (Tg2576 AD Disease Mice; 50 mg/kg p.o., 7th months): 18.70 ± 6.96
- % Spontaneous Alterations (Y-Maze) (Tg2576 AD Disease Mice; 50 mg/kg p.o., 7th months): 57.59 ± 3.85%
- # of Spontaneous Alterations (Y-Maze) (Tg2576 AD Disease Mice; [6]): 16.00 ± 2.59
- % Spontaneous Alterations (Y-Maze) (Tg2576 AD Disease Mice; [6]): 41.65 ± 5.52%
- # of Spontaneous Alterations (Y-Maze) (Tg2576 AD Disease Mice; [7]): 16.00 ± 2.48
- % Spontaneous Alterations (Y-Maze) (Tg2576 AD Disease Mice; [7]): 43.66 ± 4.55%
- # of Spontaneous Alterations (Y-Maze) (Tg2576 AD Disease Mice; [8]): 25.00 ± 5.19
- % Spontaneous Alterations (Y-Maze) (Tg2576 AD Disease Mice; [8]): 53.60 ± 3.25%
